16 compounds from PubChem BioAssay (NCI) can be followed below.

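Growth conditions: 96-well plates. Treatment: test compound, 48 hours, 5 concentrations. Analysis: linear interpolation between bracketing concentrations; unreached endpoints set to highest concentration. GI50: concentration for 50% inhibition of growth. TGI: concentration producing complete growth inhibition.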

Some test systems named below: HOP-62 NSCLC; HOP-92 NSCLC; LOX IMVI melanoma; OVCAR-5 ovarian; RXF 393 renal; SF-295 CNS; SR leukemia; RPMI-8226 leukemia; NCI-H522 lung; TK-10 renal.
What all share (assay): NCI-60 cell line screen, 48 h

Turning to `COc1ccc(NC(=O)CC/C(CC(=O)C(C)(C)C)=N\NC(=O)C(N)=O)cc1`, the TGI in the test with HOP-62 NSCLC, in the test with HOP-92 NSCLC, in the test on LOX IMVI melanoma, in the test on OVCAR-5 ovarian, with RXF 393 renal and in the test on SF-295 CNS was over 100 µM each time. Further, the TGI in the test with SR leukemia is over 100 µM.
As to `O=C1c2ccccc2NC1(c1ccccc1)c1c(-c2ccccc2)[nH]c2ccccc12` (configuration not stated), the TGI with HOP-62 NSCLC is over 100 µM; with HOP-92 NSCLC, over 100 µM; in the test with RPMI-8226 leukemia it was over 100 µM; with RXF 393 renal it was 64.1 µM; in the test with SF-295 CNS, over 100 µM; in the test on SR leukemia, over 100 µM.
As to `COc1cc2c(cc1OC)C(OC)N(C)c1c-2ccc2cc3c(cc12)OCO3` (configuration not stated), the TGI in the test on HOP-62 NSCLC is 7.4 µM; in the test with HOP-92 NSCLC it was 5.76 µM; in the test with LOX IMVI melanoma it was over 32.8 µM; in the test on NCI-H522 lung, 0.766 µM; with OVCAR-5 ovarian it was 11.8 µM; in the test on RPMI-8226 leukemia, 13.4 µM. Besides, the TGI with RXF 393 renal is 22.7 µM; with SF-295 CNS, over 75 µM; in the test with SR leukemia it was over 75 µM; with TK-10 renal it was over 75 µM.
Consider `Fc1ccc(-c2ncn(C3CCNCC3)c2-c2ccnc(Oc3ccc(F)c(F)c3)n2)cc1`, for which the GI50 with HOP-62 NSCLC is 4.83 µM; in the test on HOP-92 NSCLC, 3.28 µM; with LOX IMVI melanoma, 4.29 µM; with NCI-H522 lung, 5.52 µM; in the test with OVCAR-5 ovarian, 7.78 µM; in the test with RPMI-8226 leukemia, 12.5 µM. The GI50 in the test with RXF 393 renal is 3.15 µM; in the test with SF-295 CNS, 7.15 µM; in the test with SR leukemia, 6.23 µM; in the test with TK-10 renal it was 5.09 µM. Further, the TGI in the test on HOP-62 NSCLC is 9.56 µM; with HOP-92 NSCLC, 15.6 µM; with LOX IMVI melanoma it was 9.14 µM; with NCI-H522 lung it was 10.5 µM; in the test on OVCAR-5 ovarian, over 25 µM; in the test with RPMI-8226 leukemia it was over 23.7 µM. Moreover, the TGI in the test with RXF 393 renal was 6.48 µM; in the test on SF-295 CNS, over 17.2 µM; in the test with SR leukemia it was 13.4 µM; in the test on TK-10 renal, 11.1 µM.
Take `CCOC(=O)C(=O)Nc1ccc(Cl)cc1C`: the TGI in the test on HOP-62 NSCLC, in the test with HOP-92 NSCLC, with LOX IMVI melanoma, in the test with NCI-H522 lung, in the test with OVCAR-5 ovarian and in the test on RPMI-8226 leukemia was over 100 µM each time. Moreover, the TGI in the test with RXF 393 renal, in the test on SF-295 CNS, in the test with SR leukemia and with TK-10 renal was over 100 µM throughout.
In the case of `Cc1cc2cn3c4ccc(O)cc4[nH]c(=O)c3c2cc1C`, the GI50 was 0.0415 µM in the test on HOP-62 NSCLC; 0.0723 µM in the test on HOP-92 NSCLC; 0.0164 µM in the test on NCI-H522 lung; 0.223 µM with OVCAR-5 ovarian; 0.252 µM with RPMI-8226 leukemia; 0.0258 µM in the test with RXF 393 renal. The GI50 in the test on SF-295 CNS was 0.0356 µM; in the test with SR leukemia it was 0.0342 µM; in the test on TK-10 renal, 0.667 µM. The TGI with HOP-62 NSCLC turned out to be 1.33 µM; in the test with HOP-92 NSCLC, 1.95 µM; with NCI-H522 lung, 0.0697 µM; in the test on OVCAR-5 ovarian, 2.02 µM; with RPMI-8226 leukemia, 3.28 µM; in the test with RXF 393 renal, 1.43 µM. The TGI amounted to 0.221 µM in the test with SF-295 CNS, 0.415 µM with SR leukemia and 2.13 µM in the test on TK-10 renal.
For `Cc1nccc2c3ccc(OCc4cn(-c5ccc(Cl)cc5)nn4)cc3n(CCCc3ccccc3)c12`, the GI50 was 4.98 µM with HOP-92 NSCLC; 1.08 µM in the test on LOX IMVI melanoma; over 33.3 µM in the test with NCI-H522 lung; 7.34 µM in the test on OVCAR-5 ovarian; 2.45 µM with RPMI-8226 leukemia; 4.45 µM in the test with RXF 393 renal. Besides, the GI50 with SF-295 CNS is 4.81 µM; in the test with SR leukemia, 0.789 µM; with TK-10 renal it was 2 µM. The TGI with HOP-92 NSCLC is 21.3 µM; in the test with LOX IMVI melanoma, 4.88 µM; in the test with NCI-H522 lung it was over 33.3 µM; in the test on OVCAR-5 ovarian, over 33.3 µM; with RPMI-8226 leukemia it was over 33.3 µM; in the test on RXF 393 renal it was 11.6 µM. For the same compound, the TGI was 12.7 µM in the test with SF-295 CNS, 2.25 µM in the test on SR leukemia and over 33.3 µM in the test on TK-10 renal.
Consider `Cc1ccc(C2NC(=O)c3ccccc3N2)s1` (configuration not stated), for which the TGI in the test with HOP-62 NSCLC was over 100 µM; with LOX IMVI melanoma it was over 100 µM; in the test on NCI-H522 lung, 18.6 µM; in the test with OVCAR-5 ovarian it was over 100 µM; in the test on RPMI-8226 leukemia, over 100 µM; in the test with RXF 393 renal it was over 100 µM. Further, the results for the TGI in the test on SF-295 CNS, in the test on SR leukemia and in the test on TK-10 renal were 6.87 µM, over 100 µM and over 100 µM, respectively.
With `O=S(=O)(N/N=C/c1cccc(Cl)c1Cl)c1ccccc1`, the TGI in the test with HOP-62 NSCLC is over 100 µM; with HOP-92 NSCLC, 82.5 µM; with LOX IMVI melanoma, over 100 µM; in the test on OVCAR-5 ovarian, over 100 µM; in the test on RPMI-8226 leukemia it was over 100 µM; in the test with RXF 393 renal, over 100 µM. The TGI in the test on SF-295 CNS, in the test on SR leukemia and with TK-10 renal was over 100 µM in each case.
In the case of `CC(=O)[O-].[Mn+3].[O-]c1ccccc1C=NCCN=Cc1ccccc1[O-]`, the GI50 is over 100 µM in the test on HOP-62 NSCLC; over 100 µM in the test with HOP-92 NSCLC; over 100 µM in the test with LOX IMVI melanoma; 16 µM in the test with NCI-H522 lung; 96.4 µM in the test on OVCAR-5 ovarian; over 100 µM with RXF 393 renal. Moreover, the GI50 in the test with SF-295 CNS is over 100 µM; in the test with SR leukemia it was 70.9 µM; in the test on TK-10 renal it was over 100 µM. Moreover, the TGI in the test on HOP-62 NSCLC, in the test on HOP-92 NSCLC, in the test with LOX IMVI melanoma, with NCI-H522 lung, in the test on OVCAR-5 ovarian and with RXF 393 renal was over 100 µM in each case. The TGI in the test on SF-295 CNS, in the test on SR leukemia and in the test on TK-10 renal was over 100 µM throughout.
In the case of `O=C(Nc1cccc(Cc2cccc(NC(=O)c3ccccc3)c2)c1)c1ccccc1`, the TGI is 60.9 µM in the test with HOP-62 NSCLC; 44.3 µM in the test with HOP-92 NSCLC; over 100 µM in the test with LOX IMVI melanoma; over 100 µM in the test with NCI-H522 lung; over 100 µM with OVCAR-5 ovarian; 46.6 µM with RXF 393 renal. For the same compound, the TGI was 70.2 µM in the test with SF-295 CNS, over 100 µM with SR leukemia and over 100 µM with TK-10 renal.
For `Cc1[nH]c2ccccc2c1-c1cc(-c2cc(-c3c(C)[nH]c4ccccc34)nc(N)n2)nc(N)n1`, the TGI in the test on HOP-62 NSCLC, with HOP-92 NSCLC, in the test with LOX IMVI melanoma, in the test with NCI-H522 lung, in the test with OVCAR-5 ovarian and in the test with RPMI-8226 leukemia was over 100 µM each time. Further, the TGI with SF-295 CNS, with SR leukemia and with TK-10 renal was over 100 µM throughout.
As to `COC(=O)Nc1nc2ccc(C(=O)c3ccc(N(C)C4COC4)cc3)cc2[nH]1`, the GI50 with HOP-62 NSCLC is 0.471 µM; with HOP-92 NSCLC, 0.62 µM; with LOX IMVI melanoma, 0.761 µM; with NCI-H522 lung, 0.337 µM; in the test on OVCAR-5 ovarian, 0.746 µM; in the test with RPMI-8226 leukemia, 0.369 µM. The GI50 is 0.28 µM in the test with SF-295 CNS, 0.188 µM in the test with SR leukemia and 31.3 µM in the test on TK-10 renal. Besides, the TGI in the test with HOP-62 NSCLC is over 100 µM; in the test with HOP-92 NSCLC it was 45.9 µM; in the test on LOX IMVI melanoma, over 100 µM; with NCI-H522 lung, 4.34 µM; with OVCAR-5 ovarian, over 100 µM; with RPMI-8226 leukemia, over 47.5 µM. Further, the TGI in the test with SF-295 CNS, in the test on SR leukemia and in the test on TK-10 renal was over 100 µM each time.
For the compound `O=C(Nc1ccccc1O)c1ccc(CNc2ccnc(C(F)(F)F)c2)cc1`, the GI50 is 5.54 µM with HOP-62 NSCLC; 0.699 µM in the test on HOP-92 NSCLC; 2.8 µM in the test with LOX IMVI melanoma; 16.5 µM in the test on OVCAR-5 ovarian; 0.5 µM in the test on RPMI-8226 leukemia; 17.3 µM with RXF 393 renal. The GI50 in the test with SF-295 CNS is 3.16 µM; in the test with SR leukemia, 2 µM; in the test on TK-10 renal, 11.3 µM. The TGI in the test with HOP-62 NSCLC is 47.6 µM; in the test on HOP-92 NSCLC, 15.4 µM; in the test with LOX IMVI melanoma it was 46 µM; with OVCAR-5 ovarian, over 100 µM; in the test with RPMI-8226 leukemia, 5.09 µM; in the test on RXF 393 renal, 43.3 µM. For the same compound, the results for the TGI in the test on SF-295 CNS, in the test on SR leukemia and with TK-10 renal were 17.1 µM, over 100 µM and 36 µM, respectively.
Regarding `CN(C)/N=C(/c1nc2ccc([N+](=O)[O-])cc2[nH]c1=O)C(O)c1ccco1` (configuration not stated), the TGI with HOP-62 NSCLC is over 100 µM; in the test with HOP-92 NSCLC, over 100 µM; in the test with LOX IMVI melanoma it was over 100 µM; in the test with NCI-H522 lung, 92.2 µM; in the test on OVCAR-5 ovarian, over 100 µM; in the test on RPMI-8226 leukemia, over 100 µM. In addition, the TGI with RXF 393 renal, in the test on SF-295 CNS and in the test with SR leukemia was over 100 µM throughout.
In the case of `COC(=O)CCC(=O)Nc1cc(Cl)ccc1Cl`, the TGI in the test with HOP-62 NSCLC, in the test with HOP-92 NSCLC, in the test on LOX IMVI melanoma, in the test on NCI-H522 lung, with OVCAR-5 ovarian and in the test on RPMI-8226 leukemia was over 100 µM each time. The TGI with RXF 393 renal is 65.8 µM; with SF-295 CNS, over 100 µM; with SR leukemia, over 100 µM.
